#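 Method: 48-hour compound exposure of cells in 96-well plates, five concentrations, linear interpolation of endpoints. GI50: concentration for 50% inhibition of growth.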 Activity calls are given as the source filed them. Rule as the data show it: active = GI50 up to about 1.1 µM and inactive = higher.
# Legend:
# Experiment in all cases: NCI-60 cell line screen, 48 h
# M14 = system: M14
# MOLT-4 = system: MOLT-4
# TK-10 = system: TK-10
# SK-MEL-28 = system: SK-MEL-28
# SK-MEL-2 = system: SK-MEL-2
# RXF 393 = system: RXF 393
# CAKI-1 = system: CAKI-1
# 786-0 = system: 786-0
# HOP-92 = system: HOP-92
# HCT-116 = system: HCT-116
# ACHN = system: ACHN
# BT-549 = system: BT-549
# SR = system: SR
# MDA-MB-231 = system: MDA-MB-231
# DU-145 = system: DU-145
# PC-3 = system: PC-3
# SK-MEL-5 = system: SK-MEL-5
# SF-295 = system: SF-295
# HL-60 = system: HL-60
# T47D = system: T47D
Structure (SMILES),GI50 (M14),GI50 (MOLT-4),GI50 (TK-10),GI50 (SK-MEL-28),GI50 (SK-MEL-2),GI50 (RXF 393),GI50 (CAKI-1),GI50 (786-0),GI50 (HOP-92),GI50 (HCT-116),GI50 (ACHN),GI50 (BT-549),GI50 (SR),GI50 (MDA-MB-231),GI50 (DU-145),GI50 (PC-3),GI50 (SK-MEL-5),GI50 (SF-295),GI50 (HL-60),GI50 (T47D)
CCOC(=O)C1C2CCC1CC(=NNc1ccc([N+](=O)[O-])cc1[N+](=O)[O-])C2 (stereo unspecified),> 50 µM (inactive),31.4 µM (inactive),> 50 µM (inactive),> 50 µM (inactive),> 50 µM (inactive),> 50 µM (inactive),14.8 µM (inactive),> 50 µM (inactive),15.8 µM (inactive),> 50 µM (inactive),> 50 µM (inactive),> 50 µM (inactive),18.6 µM (inactive),> 50 µM (inactive),> 50 µM (inactive),39.6 µM (inactive),46.2 µM (inactive),8.99 µM (inactive),,
O=c1c(Cc2ccccc2Cc2c(O)oc3ccccc3c2=O)c(O)oc2ccccc12,> 100 µM (inactive),> 100 µM (inactive),> 100 µM (inactive),> 100 µM (inactive),> 100 µM (inactive),> 100 µM (inactive),> 100 µM (inactive),> 100 µM (inactive),> 100 µM (inactive),> 100 µM (inactive),> 100 µM (inactive),> 100 µM (inactive),,> 100 µM (inactive),> 100 µM (inactive),> 100 µM (inactive),> 100 µM (inactive),> 100 µM (inactive),> 100 µM (inactive),> 100 µM (inactive)
CCCNC(=O)Cn1c(C)cc2ccccc21,> 100 µM (inactive),> 100 µM (inactive),> 100 µM (inactive),> 100 µM (inactive),> 100 µM (inactive),> 100 µM (inactive),> 100 µM (inactive),> 100 µM (inactive),> 100 µM (inactive),> 100 µM (inactive),> 100 µM (inactive),> 100 µM (inactive),> 100 µM (inactive),,> 100 µM (inactive),> 100 µM (inactive),> 100 µM (inactive),> 10 µM (inactive),> 100 µM (inactive),> 100 µM (inactive)
O=C(OCC12CC3CC(CC(C3)C1)C2)c1ccc(NCc2cc(O)ccc2O)cc1,1.96 µM (inactive),0.115 µM (active),1.99 µM (inactive),1.54 µM (inactive),2.5 µM (inactive),1.29 µM (inactive),0.466 µM (active),0.708 µM (active),3.66 µM (inactive),2.26 µM (inactive),2.01 µM (inactive),0.331 µM (active),,4.06 µM (inactive),3.54 µM (inactive),0.713 µM (active),1.32 µM (inactive),3.76 µM (inactive),0.145 µM (active),0.473 µM (active)
O=c1cc(NCc2ccncc2)[nH]c(=O)[nH]1,> 100 µM (inactive),> 100 µM (inactive),> 100 µM (inactive),> 100 µM (inactive),> 100 µM (inactive),> 100 µM (inactive),> 100 µM (inactive),> 100 µM (inactive),> 100 µM (inactive),> 100 µM (inactive),> 100 µM (inactive),> 100 µM (inactive),> 100 µM (inactive),> 100 µM (inactive),,> 100 µM (inactive),> 100 µM (inactive),> 100 µM (inactive),> 100 µM (inactive),> 100 µM (inactive)
O=C1NC(=S)N/C1=C\c1cccs1,> 100 µM (inactive),> 100 µM (inactive),> 100 µM (inactive),> 100 µM (inactive),> 100 µM (inactive),> 100 µM (inactive),> 100 µM (inactive),> 100 µM (inactive),,> 100 µM (inactive),,> 100 µM (inactive),,> 100 µM (inactive),> 100 µM (inactive),> 100 µM (inactive),> 100 µM (inactive),> 100 µM (inactive),,73.1 µM (inactive)
O=C(CN1CCN(c2ccccc2)CC1)c1ccc2[nH]c(=O)oc2c1,> 100 µM (inactive),> 100 µM (inactive),> 100 µM (inactive),> 100 µM (inactive),> 100 µM (inactive),> 100 µM (inactive),> 100 µM (inactive),> 100 µM (inactive),,> 100 µM (inactive),> 100 µM (inactive),> 100 µM (inactive),> 100 µM (inactive),83.4 µM (inactive),> 100 µM (inactive),> 100 µM (inactive),,> 100 µM (inactive),> 100 µM (inactive),
N#CCCOc1cccc(C2(N3CCCCC3)CCCCC2)c1,> 100 µM (inactive),> 100 µM (inactive),> 100 µM (inactive),> 100 µM (inactive),> 100 µM (inactive),,> 100 µM (inactive),> 100 µM (inactive),,> 100 µM (inactive),> 100 µM (inactive),> 100 µM (inactive),> 100 µM (inactive),> 100 µM (inactive),> 100 µM (inactive),> 100 µM (inactive),> 100 µM (inactive),> 100 µM (inactive),> 100 µM (inactive),> 100 µM (inactive)
NCCSc1nc2ccccc2c(=O)n1-c1ccccc1,53.8 µM (inactive),> 10 µM (inactive),45.5 µM (inactive),> 100 µM (inactive),67 µM (inactive),,90.6 µM (inactive),51.1 µM (inactive),10.3 µM (inactive),60.3 µM (inactive),21.6 µM (inactive),27.2 µM (inactive),11.9 µM (inactive),> 100 µM (inactive),,27.9 µM (inactive),74.3 µM (inactive),28.2 µM (inactive),32.8 µM (inactive),32.6 µM (inactive)
N#CC12C(=O)N3C(=NC(c4ccccc4)NC3c3ccccc3)C1(C#N)C(c1ccccc1)NC1=C2CCC1 (stereo unspecified),> 100 µM (inactive),> 100 µM (inactive),> 100 µM (inactive),> 100 µM (inactive),> 100 µM (inactive),> 100 µM (inactive),> 100 µM (inactive),> 100 µM (inactive),> 100 µM (inactive),> 100 µM (inactive),> 100 µM (inactive),> 100 µM (inactive),,> 100 µM (inactive),> 100 µM (inactive),> 100 µM (inactive),> 100 µM (inactive),> 100 µM (inactive),> 100 µM (inactive),> 100 µM (inactive)
N#Cc1c(N)c(-c2ccc(Cl)cc2)c(F)c2ccccc12,> 100 µM (inactive),,> 100 µM (inactive),> 100 µM (inactive),> 100 µM (inactive),18.8 µM (inactive),> 100 µM (inactive),> 100 µM (inactive),3.98 µM (inactive),> 100 µM (inactive),> 100 µM (inactive),> 100 µM (inactive),,66.2 µM (inactive),,> 100 µM (inactive),> 100 µM (inactive),> 100 µM (inactive),,> 100 µM (inactive)
Cc1nc2ccccc2c(-n2cccn2)c1CCn1cccn1,> 100 µM (inactive),39.4 µM (inactive),> 100 µM (inactive),> 100 µM (inactive),> 100 µM (inactive),> 100 µM (inactive),> 100 µM (inactive),> 100 µM (inactive),52.8 µM (inactive),> 100 µM (inactive),80.7 µM (inactive),,71.4 µM (inactive),51.4 µM (inactive),> 100 µM (inactive),> 100 µM (inactive),46.6 µM (inactive),> 100 µM (inactive),> 100 µM (inactive),> 100 µM (inactive)
O=C(NCc1ccccc1Cl)c1c(O)c2ccccc2[nH]c1=O,,> 100 µM (inactive),56.4 µM (inactive),> 100 µM (inactive),,21.2 µM (inactive),22.7 µM (inactive),16.8 µM (inactive),27.9 µM (inactive),27.2 µM (inactive),> 10 µM (inactive),34.9 µM (inactive),> 100 µM (inactive),18.6 µM (inactive),> 100 µM (inactive),64.9 µM (inactive),46.8 µM (inactive),33.4 µM (inactive),> 100 µM (inactive),
C=CCOn1c(C=C)nc2ccc(C)cc21,16.5 µM (inactive),8.18 µM (inactive),13.6 µM (inactive),18.7 µM (inactive),15.5 µM (inactive),,20.4 µM (inactive),14 µM (inactive),34.9 µM (inactive),12.1 µM (inactive),20.1 µM (inactive),19.7 µM (inactive),7.59 µM (inactive),16.7 µM (inactive),,12.9 µM (inactive),17.5 µM (inactive),25.6 µM (inactive),5.01 µM (inactive),10.7 µM (inactive)
CCN(CC)CCCNc1[nH]c2ccccc2c2nc3ccc(OC)cc3c1-2,1.71 µM (inactive),0.279 µM (active),2.31 µM (inactive),1.69 µM (inactive),1.73 µM (inactive),1.59 µM (inactive),2.71 µM (inactive),1.16 µM (inactive),2.13 µM (inactive),0.618 µM (active),4.27 µM (inactive),,0.274 µM (active),1.54 µM (inactive),2.64 µM (inactive),1.22 µM (inactive),1.73 µM (inactive),1.17 µM (inactive),1.21 µM (inactive),10 µM (inactive)
